Entries after “also recorded” stand apart in the source; their conditions may differ. Ends that are not written are not given here.
Experiments:
E. faecalis = experiment: Kill or inhibit growth/proliferation; morphology, biofilm and growth disruption (Tables 5, 6); format: cell-based, Enterococcus faecalis; parameters: key: A: Peptide aggregates; B: Less hyphal formation; Clumps; Diffuse clumps and small polyps; F: Diffuse growth; H: Thin; I: Growth inhibition; Microcolony formation; Rippled; Small polyps; Thick; W: Halo formation on top, microlonies on bottom; also: test concentration or dose not given here
MRSA = experiment: as above; format: cell-based, Methicillin-resistant Staphylococcus aureus; parameters: key: A: Peptide aggregates; B: Less hyphal formation; Clumps; Diffuse clumps and small polyps; F: Diffuse growth; H: Thin; I: Growth inhibition; Microcolony formation; Rippled; Small polyps; Thick; W: Halo formation on top, microlonies on bottom
S. epidermidis = experiment: as above; format: cell-based, Staphylococcus epidermidis; parameters: key: A: Peptide aggregates; B: Less hyphal formation; Clumps; Diffuse clumps and small polyps; F: Diffuse growth; H: Thin; I: Growth inhibition; Microcolony formation; Rippled; Small polyps; Thick; W: Halo formation on top, microlonies on bottom
S. pneumoniae = experiment: as above; format: cell-based, Streptococcus pneumoniae; parameters: key: A: Peptide aggregates; B: Less hyphal formation; Clumps; Diffuse clumps and small polyps; F: Diffuse growth; H: Thin; I: Growth inhibition; Microcolony formation; Rippled; Small polyps; Thick; W: Halo formation on top, microlonies on bottom
E. coli = experiment: as above; format: cell-based, Escherichia coli; parameters: key: A: Peptide aggregates; B: Less hyphal formation; Clumps; Diffuse clumps and small polyps; F: Diffuse growth; H: Thin; I: Growth inhibition; Microcolony formation; Rippled; Small polyps; Thick; W: Halo formation on top, microlonies on bottom; also: test concentration or dose not given here
microorganisms = experiment: Peptides having multiple activities (targeting/binding, antimicrobial, growth or phenotype altering)
Excerpt: In certain embodiments, peptides described herein can have multiple activities. Thus for example, a peptide can have both binding/targeting activity and antimicrobial activity. Such peptides can be used, e.g., in a chimeric construct, for any or all of these properties. Thus, for example, a peptide designated “B” in Table 8 can be used as a targeting peptide. If it is also designated G or M it can also be used for antimicrobial activity.

[1] = tested on: microorganisms (e.g., bacteria, yeasts, fungi); experiment: Targeting peptide binding to target microorganisms (Table 3); settings: microorganism(s) the targeting peptide binds, preferably 1x PBS
[2] = peptide binding conducted in aqueous buffers varied by peptide solubility
For Organism, effect in this document: test concentration or dose not given here.

Substance	Organism, effect (E. faecalis)	Organism, effect (MRSA)	Organism, effect (S. epidermidis)	Organism, effect (S. pneumoniae)	Organism, effect (E. coli)	Activities (microorganisms)	Target(s) ([1]; binding in aqueous buffers depending on peptide solubility)	Target(s) [1, 2]
KTPNDKIHKTIIIKHIIL [PF-533]	E. faecalis (C)	MRSA (H)	S. epidermidis (H)	S. pneumoniae (C)	E. coli (R)	–	–	–
PF-347: peptide having multiple activities (GIFTGVTVVVSLKHC; Peptide with targeting and/or antimicrobial activity)	E. faecalis (C)	MRSA (C)	S. epidermidis (C)	–	E. coli (C)	G B	–	–
PF-374: peptide having multiple activities (chain 1 HLFFVKGMFILCQKNQINDE; chain 2 HLFFVKGMFILCQKNQINDE; Peptide with targeting and/or antimicrobial activity)	E. faecalis (C)	MRSA (M)	S. epidermidis (C)	–	E. coli (C)	G B	–	–
PF-376: peptide having multiple activities (chain 1 MTVFEALMLAIAFATLIVKISNKNDKK; chain 2 MTVFEALMLAIAFATLIVKISNKNDKK; Peptide with targeting and/or antimicrobial activity)	E. faecalis (C)	MRSA (C)	S. epidermidis (C)	–	E. coli (C)	G B	–	–
PF-379: peptide having multiple activities (chain 1 VFVVLFIIYLASKLLTKLFPIKK; chain 2 VFVVLFIIYLASKLLTKLFPIKK; Peptide with targeting and/or antimicrobial activity)	E. faecalis (C)	MRSA (C)	S. epidermidis (C)	–	E. coli (C)	G B	–	–
PF-381: peptide having multiple activities (chain 1 QGANPCQQVGFTVNDPDCRLAKTV; chain 2 QGANPCQQVGFTVNDPDCRLAKTV; Peptide with targeting and/or antimicrobial activity)	E. faecalis (C)	MRSA (C)	S. epidermidis (C)	–	E. coli (R)	G B	E. coli; also recorded: P. aeruginosa; also recorded: C. jejuni	–
PF-386: peptide having multiple activities (chain 1 FTLTLITTIVAILNYKDKKK; chain 2 FTLTLITTIVAILNYKDKKK; Peptide with targeting and/or antimicrobial activity)	E. faecalis (C)	MRSA (C)	S. epidermidis (C)	–	E. coli (C)	G B	–	–
PF-396: peptide having multiple activities (LIYTILASLGVLTVLQAILGREPKAVKA; Peptide with targeting and/or antimicrobial activity)	E. faecalis (C)	MRSA (C)	S. epidermidis (S)	–	E. coli (C)	G B	–	S. epidermidis; also recorded: E. coli; also recorded: P. aeruginosa; also recorded: C. albicans; also recorded: E. faecalis; also recorded: C. jeikeium
PF-398: peptide having multiple activities (ILVVLAGILLVVLSYVGISKFKMNC; Peptide with targeting and/or antimicrobial activity)	E. faecalis (C)	MRSA (C)	S. epidermidis (C)	–	E. coli (C)	G B	–	–
PF-399: peptide having multiple activities (FPIISALLGAIICIAIYSFIVNRKA; Peptide with targeting and/or antimicrobial activity)	E. faecalis (C)	MRSA (C)	S. epidermidis (C)	–	E. coli (C)	G B	–	–
PF-401: peptide having multiple activities (YWLSRVTTGHSFAFEKPVPLSLTIK; Peptide with targeting and/or antimicrobial activity)	E. faecalis (C)	MRSA (C)	S. epidermidis (C)	–	E. coli (R)	G B	–	S. epidermidis and E. coli and P. aeruginosa and MRSA and E. faecalis and C. jejuni
PF-410: peptide having multiple activities (FALELIALCRNLFIVYFP; Peptide with targeting and/or antimicrobial activity)	E. faecalis (C)	MRSA (M)	S. epidermidis (C)	–	E. coli (S)	G B	–	–
PF-427: peptide having multiple activities (YVLEYHGLRATQDVDAFMAL; Peptide with targeting and/or antimicrobial activity)	E. faecalis (C)	MRSA (C)	–	S. pneumoniae (R)	E. coli (C)	G B	–	M. luteus; also recorded: P. aeruginosa; also recorded: C. albicans; also recorded: C. jejuni
PF-439: peptide having multiple activities (chain 1 RVLVLKKFHGIMDGNRNVAVFFVGQ; chain 2 RVLVLKKFHGIMDGNRNVAVFFVGQ; Peptide with targeting and/or antimicrobial activity)	E. faecalis (C)	MRSA (M)	S. epidermidis (C)	S. pneumoniae (R)	E. coli (R)	G B	–	–
PF-440: peptide having multiple activities (chain 1 MFIISPDLFNIAVILYILFFIHDILLLILS; chain 2 MFIISPDLFNIAVILYILFFIHDILLLILS; Peptide with targeting and/or antimicrobial activity)	E. faecalis (C)	MRSA (C)	S. epidermidis (C)	S. pneumoniae (R)	E. coli (R)	G B	–	–
PF-451: peptide having multiple activities (chain 1 MVNYIIGSYMLYREQNNNEALRKFDITLAM; chain 2 MVNYIIGSYMLYREQNNNEALRKFDITLAM; Peptide with targeting and/or antimicrobial activity)	E. faecalis (C)	MRSA (C)	S. epidermidis (C)	S. pneumoniae (C)	E. coli (R)	G B	–	–
PF-514: peptide having multiple activities (chain 1 QRFYKLFYHIDLTNEQALKLFQVK; chain 2 QRFYKLFYHIDLTNEQALKLFQVK; Peptide with targeting and/or antimicrobial activity)	E. faecalis (C)	–	S. epidermidis (C)	S. pneumoniae (M)	E. coli (R)	G B	–	S. epidermidis and E. coli and P. aeruginosa and C. albicans and MRSA and S. pneumoniae and E. faecalis and C. jeikeium
PF-519: peptide having multiple activities (chain 1 YLVYSGVLATAAAF-NH2; chain 2 YLVYSGVLATAAAF-NH2)	E. faecalis (C)	MRSA (C)	–	S. pneumoniae (S)	E. coli (R)	G B	–	M. luteus; also recorded: E. faecalis; also recorded: C. jeikeium
PF-532 (KFIYKYKLSFIIYKILIQTLTMELNK; Peptide with targeting and/or antimicrobial activity)	E. faecalis (C)	MRSA (C)	–	S. pneumoniae (C)	E. coli (C)	–	–	–
PF-534 (KYFHLFYHNIIHYSKQHLSLKVDFKN; Peptide with targeting and/or antimicrobial activity)	E. faecalis (C)	MRSA (C)	S. epidermidis (C)	S. pneumoniae (R)	E. coli (R)	–	–	–
